Laboratory results as given in patent US20060106075A1, “Benzothiazole derivatives having beta-2-adrenoreceptor agonist activity” (priority 2002, published 2006).
Where two headings read alike, the source gives them in different places.

Target: β2-adrenoceptor (Homo sapiens, UniProt P07550)
Assay: β2-adrenoceptor binding potency, classical filtration binding assay
From the text: Accordingly the invention also provides a compound of formula I in free or salt form for use as a pharmaceutical.

Sequence of β2-adrenoceptor (P07550 whole entry, species assumed): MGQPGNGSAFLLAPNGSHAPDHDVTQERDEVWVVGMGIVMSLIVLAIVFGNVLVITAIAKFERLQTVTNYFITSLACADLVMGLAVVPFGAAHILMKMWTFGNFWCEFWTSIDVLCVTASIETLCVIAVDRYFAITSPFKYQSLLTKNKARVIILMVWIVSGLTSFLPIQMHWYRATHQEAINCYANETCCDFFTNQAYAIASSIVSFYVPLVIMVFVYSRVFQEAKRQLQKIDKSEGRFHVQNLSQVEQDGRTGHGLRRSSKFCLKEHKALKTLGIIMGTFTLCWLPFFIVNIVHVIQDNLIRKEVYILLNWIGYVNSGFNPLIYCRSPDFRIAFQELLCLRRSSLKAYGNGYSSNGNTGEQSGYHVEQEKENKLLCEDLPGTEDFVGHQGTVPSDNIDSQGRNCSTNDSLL

Row | SMILES | Ki (read-out: Ki (β2)) [pM] | Ki [pM]
1 | O=c1[nH]c2c(O)ccc(C(O)CNCCc3ccc(OCCCCc4ccccc4)cc3)c2s1 (centres unmarked) [Example 1, 4-hydroxy7-(1-hydroxy-2-{2-[4-(4-phenyl-butoxy)-phenyl]-ethylamino}-ethyl)-3H-benzothiazol-2-one] | 300 | 
2 | COc1ccc(C[C@@H](C)NCC(O)c2ccc(O)c3[nH]c(=O)sc23)cc1 (some centres unmarked) [Example 3] |  | 1600
